Measurements reported in patent US12077503B2, “Substituted cyclic amides and their use as herbicides” (FMC CORPORATION, priority 2015, dated 2024).

Legend:
Assay type in all cases: in vivo
[1] = test system: barnyardgrass (Echinochloa crus-galli); assay: Test C flooded paddy test; conditions: Flood, 0 is no effect, 100 is complete control
Method in brief: (§1)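 Plants grown to the 2-leaf stage in pots flooded to 3 cm above soil; compounds applied directly into the paddy water, depth held throughout. After 13 to 15 d in greenhouse, injury visually rated against untreated controls on a 0–100 scale (0 no effect, 100 complete control).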

[2] = test system: sedge, umbrella (small-flower umbrella sedge, Cyperus difformis); assay: Test C flooded paddy test; conditions: Flood, 0 is no effect, 100 is complete control
Method in brief: as §1

rice (Oryza sativa) = assay: Test C flooded paddy test; conditions: Flood, 0 is no effect, 100 is complete control
Method in brief: as §1

[3] = test system: ducksalad (Heteranthera limosa); assay: Test C flooded paddy test; conditions: Flood, 0 is no effect, 100 is complete control
Method in brief: as §1

[4] = test system: ryegrass, Italian (Italian ryegrass, Lolium multiflorum); assay: Test A preemergence; conditions: Preemergence
Method in brief: (§2)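 Compounds were formulated in a non-phytotoxic solvent mixture with surfactant and applied as a preemergence directed soil spray after seeding, or sprayed postemergence over plants 2 to 10 cm tall at the one- to two-leaf stage. Evaluation after about 10 d compared treated with untreated controls, using a scale from 0 (no effect) to 100 (complete control).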

[5] = test system: barnyardgrass (Echinochloa crus-galli); assay: Test A preemergence; conditions: Preemergence
Method in brief: as §2

[6] = test system: pigweed (Amaranthus retroflexus); assay: Test A preemergence; conditions: Preemergence
[7] = test system: ragweed (common ragweed, Ambrosia elatior); assay: Test A preemergence; conditions: 125 g ai/ha, Preemergence; visual injury after approximately 10 d; 0 to 100 scale where 0 is no effect and 100 is complete control
Method in brief: as §2

Kochia (Kochia scoparia) [8] = assay: Test A preemergence; conditions: Preemergence
Method in brief: as §2

[9] = test system: giant foxtail (Setaria faberii); assay: Test A preemergence; conditions: Preemergence
Method in brief: as §2

[10] = test system: ryegrass, Italian (Italian ryegrass, Lolium multiflorum); assay: Test A postemergence
Method in brief: as §2

[11] = test system: wheat (Triticum aestivum); assay: Test A postemergence
Method in brief: as §2

[12] = test system: barnyardgrass (Echinochloa crus-galli); assay: Test A postemergence
Method in brief: as §2

[13] = test system: pigweed (Amaranthus retroflexus); assay: Test A postemergence
Method in brief: as §2

[14] = test system: ragweed (common ragweed, Ambrosia elatior); assay: Test A postemergence
Method in brief: as §2

corn (Zea mays) = assay: Test A postemergence
Method in brief: as §2

Kochia (Kochia scoparia) [15] = assay: Test A postemergence
Method in brief: as §2

[16] = test system: blackgrass (Alopecurus myosuroides); assay: Test A postemergence
Method in brief: as §2

[17] = test system: giant foxtail (Setaria faberii); assay: Test A postemergence
Method in brief: as §2

[18] = test system: Galium (catchweed bedstraw, Galium aparine); assay: Test A postemergence
Method in brief: as §2

[19] = test system: barnyardgrass (Echinochloa crus-galli); assay: Test B flooded paddy test; conditions: Flood, 250 g ai/ha; 0 to 100 scale where 0 is no effect and 100 is complete control; 13 to 15 d
Method in brief: (§3)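 Greenhouse paddy pots with 2-leaf stage plants received compound by direct addition to floodwater 3 cm deep, kept at that level. Scored visually at 13–15 d versus controls (0 no effect; 100 complete control).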

[20] = test system: sedge, umbrella (small-flower umbrella sedge, Cyperus difformis); assay: Test B flooded paddy test; conditions: Flood, 250 g ai/ha; 0 to 100 scale where 0 is no effect and 100 is complete control; 13 to 15 d
Method in brief: as §3

rice (Oryra sativa) = assay: Test B flooded paddy test; conditions: Flood, 250 g ai/ha; 0 to 100 scale where 0 is no effect and 100 is complete control; 13 to 15 d
Method in brief: as §3

[21] = test system: ducksalad (Heteranthera limosa); assay: Test B flooded paddy test; conditions: Flood, 250 g ai/ha; 0 to 100 scale where 0 is no effect and 100 is complete control; 13 to 15 d
Method in brief: as §3

[22] = 125 g ai/ha, visual injury after approximately 10 d, 0 to 100 scale where 0 is no effect and 100 is complete control
[23] = 500 g ai/ha, visual injury approx. 10 d
[24] = 125 g ai/ha, postemergence, visual rating after approx. 10 d, 0 to 100 scale (0 no effect, 100 complete control)
[25] = Postemergence, 500 g ai/ha, 0 to 100 scale where 0 is no effect and 100 is complete control

CN1CC(c2ccc(F)c(C(F)(F)F)c2)C(C(=O)Nc2ccccc2F)C1=O (stereo not drawn) [Compound 611]
15: Plant response rating (scale of 0 to 100), Rice (rice (Oryza sativa); 250 g ai/ha)
50: Plant response rating, Corn (corn (Zea mays); [24]) | Plant response rating, Blackgrass [16, 24] | Plant response rating, Galium [18, 24]
90: Plant response rating, Barnyardgrass [5, 22] | Barnyardgrass plant response rating (0 to 100 scale, 0 is no effect, 100 is complete control) [5, 23] | Plant response rating, Foxtail, Giant [9, 22] | Foxtail, Giant plant response rating (0 to 100 scale, 0 is no effect, 100 is complete control) [9, 23] | Plant response rating, Barnyardgrass [12, 24] | Plant response rating, Barnyardgrass [12, 25] | Plant response rating, Foxtail, Giant [17, 24] | Plant response rating, Foxtail, Giant [17, 25]
100: Plant response rating, Ducksalad [21]
80: Plant response rating (scale of 0 to 100), Ducksalad ([3]; 125 g ai/ha) | Pigweed plant response rating (0 to 100 scale, 0 is no effect, 100 is complete control) [6, 23]
0: Plant response rating (scale of 0 to 100), Barnyardgrass ([1]; 31 g ai/ha) | Plant response rating (scale of 0 to 100), Barnyardgrass ([1]; 62 g ai/ha) | Plant response rating (scale of 0 to 100), Sedge, Umbrella ([2]; 31 g ai/ha) | Plant response rating (scale of 0 to 100), Sedge, Umbrella ([2]; 62 g ai/ha) | Plant response rating (scale of 0 to 100), Sedge, Umbrella ([2]; 125 g ai/ha) | Plant response rating (scale of 0 to 100), Sedge, Umbrella ([2]; 250 g ai/ha) | Plant response rating (scale of 0 to 100), Rice (rice (Oryza sativa); 31 g ai/ha) | Plant response rating (scale of 0 to 100), Rice (rice (Oryza sativa); 62 g ai/ha) | Plant response rating (scale of 0 to 100), Rice (rice (Oryza sativa); 125 g ai/ha) | Plant response rating (scale of 0 to 100), Ducksalad ([3]; 31 g ai/ha) | Plant response rating (scale of 0 to 100), Ducksalad ([3]; 62 g ai/ha) | Plant response rating, Ragweed [7] | Plant response rating, Ragweed [14, 24] | Plant response rating, Sedge, Umbrella [20]
40: Plant response rating, Kochia (Kochia (Kochia scoparia) [8]; [22]) | Plant response rating, Ryegrass, Italian [10, 24] | Plant response rating, Wheat [11, 24] | Plant response rating, Rice (rice (Oryra sativa))
95: Plant response rating (scale of 0 to 100), Ducksalad ([3]; 250 g ai/ha)
20: Plant response rating, Pigweed [13, 24]
85: Plant response rating, Barnyardgrass [19]
75: Plant response rating (scale of 0 to 100), Barnyardgrass ([1]; 250 g ai/ha)
70: Plant response rating, Pigweed [6, 22] | Plant response rating, Ryegrass, Italian [10, 25] | Plant response rating, Corn (corn (Zea mays); [25]) | Plant response rating, Kochia (Kochia (Kochia scoparia) [15]; [25]) | Plant response rating, Blackgrass [16, 25]
60: Plant response rating (scale of 0 to 100), Barnyardgrass ([1]; 125 g ai/ha) | Plant response rating, Ryegrass, Italian [4, 22] | Ryegrass, Italian plant response rating (0 to 100 scale, 0 is no effect, 100 is complete control) [4, 23] | Kochia plant response rating (0 to 100 scale, 0 is no effect, 100 is complete control) (Kochia (Kochia scoparia) [8]; [23]) | Plant response rating, Wheat [11, 25] | Plant response rating, Kochia (Kochia (Kochia scoparia) [15]; [24]) | Plant response rating, Galium [18, 25]
30: Plant response rating, Pigweed [13, 25] | Plant response rating, Ragweed [14, 25]
